Paper PMC10644342, “Improved Antibacterial Activity of 1,3,4-Oxadiazole-Based Compounds That Restrict Staphylococcus aureus Growth Independent of LtaS Function” (ACS Infectious Diseases, 2023)
Read-outs that look alike come from different tables or passages of the source.

How the values were obtained:
S. agalactiae = experiment: MIC, broth microdilution (CLSI); assay type: cell-based; conditions: Streptococcus agalactiae
Description: (§1) S. aureus, S. epidermidis, E. faecalis, and E. faecium strains were routinely cultivated on tryptic soy agar (TSA) and grown for 18 h at 37 °C. S. aureus single colonies were subsequently transferred into 2 mL of tryptic soy broth (TSB) and grown for a further 18 h at 37 °C while being shaken at 180 rpm. S. pyogenes, S. agalactiae, and S. dysgalactiae strains were routinely cultured on TSA supplemented with 5% sheep blood and grown for 18 h at 37 °C with 5% CO2. E. coli was grown in LB broth at 37 °C. For LtaS-deficient strains, TSB was supplemented with 0.5 M NaCl to provide an osmotically balanced environment and instead grown at 30 °C. For strains harboring the pRMC2 tetracycline inducible vector,[61] the growth medium was supplemented with 10 μg/mL chloramphenicol and […] anhydrotetracycline hydrochloride (Sigma). Phenylalanine-arginine β-naphthylamide (PAβN) (Sigma) was dissolved in sterile water.
(§2) B. subtilis, staphylococcal, and enterococcal strains were grown in Mueller Hinton broth (MHB), while streptococcal strains were grown in MHB supplemented with 5% laked horse blood. All strains were grown for 18 h at 37 °C. The overnight cultures were subsequently subcultured 1:200 and grown to the exponential phase (OD600nm = 0.5–0.6) in fresh broth. 1771 and its derivatives 9–14 were reconstituted in DMSO and further diluted by performing a 1:2 serial dilution ranging between 256 and 0.125 μg/mL in a 96-well microtiter plate. One hundred microliters of 0.5 McFarland standardized inoculum (approximately equal to 5 × 10^5 cfu) were then dispensed into each well in the 96-well microtiter plate. The plate was incubated for 18 h at 37 °C.

E. faecalis (JH2-2) = experiment: MIC, broth microdilution (CLSI); assay type: cell-based; conditions: Enterococcus faecalis
Description: as §1, §2

E. faecium (C68) = experiment: MIC, broth microdilution (CLSI); assay type: cell-based; conditions: Enterococcus faecium
Description: as §1, §2

S. pyogenes = experiment: MIC, broth microdilution (CLSI); assay type: cell-based; conditions: Streptococcus pyogenes
Description: as §1, §2

S. dysgalactiae = experiment: MIC, broth microdilution (CLSI); assay type: cell-based; conditions: Streptococcus dysgalactiae
Description: as §1, §2

S. epidermidis = experiment: MIC, broth microdilution (CLSI); assay type: cell-based, Staphylococcus epidermidis; conditions: for MIC: read-out: minimum inhibitory concentration
Description: as §1, §2

erythrocytes = experiment: Erythrocyte toxicity (hemolysis) assay; assay type: cell-based, human; conditions: concentrations as high as 256 μg/mL, 1 h, 37 °C
Description: Consent was collected from three healthy volunteers prior to blood collection and in accordance with the recommendations of the University of Bath, Research Ethics Approval Committee for Health Blood (EP 18/19108). Blood was collected by venepuncture and drawn directly into K2-EDTA-coated Vacutainer tubes (BD Biosciences) to prevent coagulation. The blood was then pelleted at 500g for 10 min at 4 °C, and the plasma layer was removed. The remaining hematocrit was resuspended to the original volume in a sterile saline solution. This procedure was repeated three times and finally resuspended in sterile PBS and diluted to 2% (v/v). One hundred microlitres of the resulting blood suspension were aliquoted in a 96-well microtire plate. An equal volume of either 1771 or 13 (diluted in PBS) was then added at a concentration range of 256–2 μg/mL and incubated for 1 h at 37 °C. Blood incubated with PBS served as a negative control, and total hemolysis (positive control) was provided by incubating the cells in 2% (v/v) Triton X-100. Following incubation, the 96-well microtire plate was pelleted at 500g for 5 min, and 100 μL of supernatant was transferred into a new plate. Absorbance at abs404nm was measured using a Sunrise plate reader, and percentage hemolysis was calculated according to controls.

S. aureus strain SH1000 = experiment: Biofilm prevention, crystal violet assay; assay type: cell-based, Staphylococcus aureus; conditions: for concentration causing a 50% reduction in biofilm formation: SH1000, 24 h
Description: An indication of the biofilm prevention capabilities of 1771 and its derivatives 9–14 was achieved through the application of the crystal violet assay. S. aureus strain SH1000 and S. epidermidis strain RP62A were used, as they are strong biofilm formers. Overnight cultures were diluted 1:200 in fresh TSB containing 0.5% glucose (TSB-G), and 100 μL was added to individual wells in a 96-well microtiter plate. One hundred microliters of 1771 and 9–14 were diluted in TSB-G and added to bacteria at a final concentration ranging from 256 to 0.25 μg/mL with subsequent incubation for 24 h at 37 °C in a static incubator. Following incubation, biofilms were washed four times with ddH2O before being stained with 150 μL of 0.1% crystal violet for 30 min at room temperature. Following a further four washes in ddH2O, wells were resuspended in 200 μL of 7% acetic acid. The absorbance intensity of the crystal violet was measured at abs595nm in a Sunrise plate reader. Biomass formed was measured as a percentage of the no-compound control.

S. aureus = experiment: MIC, broth microdilution (CLSI); assay type: cell-based, Staphylococcus aureus; conditions: for MIC: read-out: minimum inhibitory concentration; for MIC50: used for selectivity index; for MIC range against S. aureus strains: collection of S. aureus strains incl. multidrug-resistant MRSA and VRSA
Description: as §1, §2

[1] = system: S. aureus wild type, clpX, ltaS, tarO mutants and ltaS overexpression strains; experiment: MIC against LtaS deletion and overexpression strains; assay type: cell-based, Staphylococcus aureus
Description: as §1, §2
For overexpression studies, full-length ltaS was amplified by PCR using MRSA strian LAC genomic DNA, primer pair LtaS-FW: 5′-[…]-3′ and LtaS-RV: 5′-[…]-3′, and Phusion High-Fidelity DNA Polymerase (Thermo Fisher). The resulting PCR product was cloned into the tetracycline inducible plasmid pRMC2 using SacI and KpnI restriction sites and T4 ligase (NEB). The cloned vector was subsequently transformed into RN4220 followed by LAC through electroporation.

[2] = NCTC8198, S. pyogenes (NCTC 8198)
[3] = NCTC12048, S. pyogenes (NCTC 12048)
[4] = NCTC10238, S. dysgalactiae (NCTC 10238)
[5] = NCTC13762, S. dysgalactiae (NCTC 13762)
[6] = Staphylococcus epidermidis, strain 305
[7] = Staphylococcus epidermidis, strain 311
[8] = Staphylococcus epidermidis, strain 319
[9] = Staphylococcus epidermidis, strain 322
[10] = Staphylococcus epidermidis, strain 771
[11] = Staphylococcus epidermidis, strain 780
[12] = Staphylococcus epidermidis, strain RP62A
[13] = Staphylococcus aureus, NEWMAN, strain Newman
[14] = Staphylococcus aureus, strain EMRSA-15
[15] = Staphylococcus aureus, strain LAC
[16] = Staphylococcus aureus, strain MRSA252
[17] = Staphylococcus aureus, strain MW2
[18] = Staphylococcus aureus, strain Mu3
[19] = Staphylococcus aureus, strain Mu50
[20] = Staphylococcus aureus, strain SH1000
[21] = Staphylococcus aureus, strain TW20
[22] = Staphylococcus aureus, 8325-4 (wild type), clpX set
[23] = Staphylococcus aureus, NEWMAN, Newman ΔtarO
[24] = Staphylococcus aureus, NEWMAN, Newman ΔtarO pRMC2 (empty vector)
[25] = Staphylococcus aureus, NEWMAN, Newman ΔtarO pltaS (ltaS overexpression)
[26] = Staphylococcus aureus, SA564 (wild type)
[27] = Staphylococcus aureus, SA564 clpX knockout mutant

O=C(COC(=O)Cc1coc2ccc3ccccc3c12)Nc1nnc(-c2ccc(S(F)(F)(F)(F)F)cc2)o1 [Compound 13, 2-Oxo-2-((5-(4-(pentafluoro-l6-sulfaneyl)phenyl)-1,3,4-oxadiazol-2-yl)amino)ethyl 2-(Naphtho[2,1-b]furan-1-yl)acetate]
> 128 µg/mL: MIC (E. faecium (C68))
128 µg/mL: MIC (S. agalactiae; S. agalactiae (COH1))
16 to 32 µg/mL: MIC (S. pyogenes; [2])
better than 1771: biofilm prevention compared with 1771 (S. aureus strain SH1000; SH1000)
64 µg/mL: MIC (S. agalactiae; S. agalactiae (18R521)) | MIC (S. pyogenes; [3]) | MIC (S. dysgalactiae; [4]) | MIC (S. dysgalactiae; [5])
0.5 µg/mL: MIC (S. epidermidis; [7]) | MIC (S. epidermidis; [9]) | MIC (S. epidermidis; [10]) | MIC (S. epidermidis; [12]) | MIC (S. aureus; [13]) | MIC (S. aureus; [14]) | MIC (S. aureus; [15]) | MIC (S. aureus; [17]) | MIC (S. aureus; [18]) | MIC (S. aureus; [19]) | MIC (S. aureus; [20]) | MIC (S. aureus; [21]) | MIC90 (S. aureus; Staphylococcus aureus, against S. aureus) | MIC50 (S. aureus; Staphylococcus aureus)
16- to 32 fold: fold increase in activity compared to 1771 (S. aureus; multidrug-resistant S. aureus strains)
0.5 to 1 µg/mL: MIC (S. epidermidis; [6]) | MIC (S. epidermidis; [11]) | MIC range against S. aureus strains (S. aureus) | MIC ([1]; 8325-4 (wild type), clpX set) | MIC [1, 22]
1 µg/mL: MIC90 (S. epidermidis; Staphylococcus epidermidis) | MIC (S. epidermidis; [8]) | MIC (S. aureus; [16]) | MIC ([1]; Staphylococcus aureus, NEWMAN) | MIC [1, 23] | MIC [1, 24] | MIC [1, 25]
neither caused any lysis: erythrocyte lysis (erythrocytes)
2 µg/mL: MIC (E. faecalis (JH2-2))
0.25 µg/mL: concentration causing a 50% reduction in biofilm formation (S. aureus strain SH1000) | MIC ([1]; SA564clpX knockout and ltaSH476Q mutant) | MIC ([1]; Staphylococcus aureus, 8325-4 clpX knockout and ltaS382STOP mutant) | MIC ([1]; Staphylococcus aureus, 8325-4 clpX knockout mutant) | MIC ([1]; Staphylococcus aureus, JE2 clpXI265E mutant) | MIC [1, 26] | MIC [1, 27]

O=C(COC(=O)Cc1coc2ccc3ccccc3c12)Nc1nnc(-c2ccccc2)o1 [Compound 1771, 2-Oxo-2-((5-phenyl-1,3,4-oxadiazol-2-yl)amino)ethyl 2-(Naphtho[2,1-b]furan-1-yl)acetate, reference compound]
neither caused any lysis: erythrocyte lysis (erythrocytes)
16 µg/mL: MIC (E. faecalis (JH2-2)) | MIC (S. epidermidis; [9]) | MIC [1, 22] | MIC ([1]; Staphylococcus aureus, JE2 (wild type)) | MIC ([1]; Staphylococcus aureus, JE2 clpXI265E and ltaS339STOP mutant) | MIC ([1]; Staphylococcus aureus, NEWMAN) | MIC [1, 23] | MIC [1, 24] | MIC [1, 25] | MIC [1, 26] | MIC ([1]; Staphylococcus aureus, SA564clpX knockout and ltaSH476Q mutant) | MIC [1, 27]
4 to 16 µg/mL: MIC range against S. aureus strains (S. aureus)
128 µg/mL: MIC (S. agalactiae; S. agalactiae (18R521)) | MIC (S. pyogenes; [3]) | MIC (S. dysgalactiae; [5])
4 to 8 µg/mL: MIC (S. aureus; [13]) | MIC (S. aureus; [19]) | MIC (S. aureus; [20])
> 128 µg/mL: MIC (S. agalactiae; S. agalactiae (COH1)) | MIC (E. faecium (C68)) | MIC (S. dysgalactiae; [4])
8 µg/mL: MIC (S. aureus; [15]) | MIC (S. aureus; [16]) | MIC (S. aureus; [17]) | MIC (S. aureus; [21]) | MIC50 (S. aureus; Staphylococcus aureus)
4 µg/mL: concentration causing a 50% reduction in biofilm formation (S. aureus strain SH1000)
8 to 16 µg/mL: MIC (S. epidermidis; [6]) | MIC (S. epidermidis; [7]) | MIC (S. epidermidis; [8]) | MIC (S. epidermidis; [10]) | MIC (S. epidermidis; [11]) | MIC (S. epidermidis; [12]) | MIC range against S. epidermidis strains (S. epidermidis; collection of S. epidermidis strains) | MIC (S. aureus; [14]) | MIC (S. aureus; [18])
32 to 64 µg/mL: MIC (S. pyogenes; [2])
